Entries after “also recorded” stand apart in the source; their conditions may differ.

Assay [1] has as its system U87MG. The assay can be described thus: Vacuolation phenotype by S2 (Example 2). The format is cell-based, human. To be noted: 30 μM, 6 hours. As for the experimental part:
(§1) U87MG, T98G, U251, SK-N-SH, A-172 and HepG2 cells were adherently cultured in MEM+10% FBS+1% P/S medium and passaged at 1:3; CT26.WT cells were adherently cultured in RPMI-1640+10% FBS+1% P/S medium and passaged at 1:3; CHO-K1 was cultured adherently in Ham's F-12K+10% FBS+[…] medium and passaged at 1:3.
(§2) The cells used above were resuscitated and passaged twice stably. When the cell density reached above 85%, the cells were digested with 0.05% trypsin-EDTA for 3 minutes, resuspended with the culture medium, and plated into a 6-well plate at a certain density, with each well system being 2 mL. The cells were cultured for 24 hours, added with 2 μL of the above-prepared S2 solution (final DMSO concentration 0.1%) to each well according to the grouping, such that the S2 concentration in the cell culture system reached 30 μM.
After 6 hours of drug treatment, the plate was observed under a microscope with a 20× objective lens, and five fields of view were randomly selected for each well to take photos and record. If bright vacuoles with clear border appeared in the cell in the observed field of view, and at least one of the following conditions was met: 1) a cell contained at least one vacuole with a diameter greater than […]; 2) a cell contained 3 or more vacuoles with a diameter within the range of […], the cell was considered as a methuosis-positive cell (Journal of Medicinal Chemistry 2018 61 (12), 5424-5434).
CELLpositive: the number of methuosis-positive cells; CELLnormal: the number of cells with normal morphology

Assay [2] has as its system CHO-K1. The assay can be described thus: Vacuolation phenotype by S2 (Example 2). The format is cell-based, hamster. The note with it: non-tumor cell line CHO-K1, 30 μM, 6 hours. As for the experimental part: as §1, §2
(§3) After 6 hours of drug treatment, the plate was observed under a microscope with a 20× objective lens, and five fields of view were randomly selected for each well to take photos and record. […]

The subject of the next assay is A172. The assay can be described thus: Cell viability assay (Example 2). The format is cell-based. To be noted: Homo sapiens, A 172; A172, 48 hours. As for the experimental part:
as §1
(§4) The above various cells were resuscitated and stably passaged twice. When the cell density reached above 85%, the cells were digested with 0.05% trypsin-EDTA for three minutes, resuspended, plated in a 96-well plate at the corresponding density, and cultured for 24 hours. The cells were treated with drugs at final concentrations of the culture system of 0.41 μM, 1.23 μM, 3.7 μM, 11.1 μM, 33.3 μM, and 100 μM. After 48 hours of drug treatment, cell viability was determined using CellCounting-Lite™ 2.0 kit. The plate was added with reagents at 100 µL/well according to the CellCounting-Lite™ 2.0 kit instructions, and shaken for 10 minutes. The luminescence value (LUM) was read on a multi-function plate reader, and the relative viability of the cells was calculated.
(§5) Relative viability of tumor cells V (%)=(LUM-LUMbackground)/(LUMnormal control−LUMbackground)×100%. LUMbackground was the background reading of the complete culture medium well added with the detection reagent. The half inhibitory concentration (IC50) was calculated using GraphPad Prism 8.0.1 statistical software.

Another assay has as its system CT26.WT. The assay can be described thus: Cell viability assay (Example 2). The class given is cell-based. The note with it: Mus musculus, 48 hours. The method, then:
as §1, §4, §5

Another assay concerns HepG2. The assay can be described thus: Cell viability assay (Example 2). The format is cell-based. To be noted: Homo sapiens; HepG2, 48 hours. As for the experimental part:
as §1, §4, §5

Another assay relates to SK-N-SH. The assay can be described thus: Cell viability assay (Example 2). The format is cell-based. To be noted: Homo sapiens, 48 hours. The method, then: as §1, §4, §5
For another assay, the system named is T98G. The assay can be described thus: Cell viability assay (Example 2). The class given is cell-based. The note with it: Homo sapiens, 48 hours. As for the experimental part: as §1, §4, §5
The next assay deals with U251. The assay is described as follows: Cell viability assay (Example 2). The note with it: Homo sapiens, U-251; U251, 48 hours. The class given is cell-based. The method, then:
as §1, §4, §5

Assay [3] concerns U87MG. The assay can be described thus: Cell viability assay (Example 2). The format is cell-based. The note with it: Homo sapiens, U-87 MG, 48 hours. As for the experimental part: as §1, §4, §5
Assay [4] deals with CHO-K1. The assay is described as follows: Cell viability assay (Example 2). The class given is cell-based, hamster. To be noted: non-tumor cell line CHO-K1, 48 hours. The method, then:
as §1, §4, §5

In assay [5] the test system is T98G subcutaneous transplantation tumor. The assay can be described thus: Human brain glioma T98G subcutaneous model in NOD SCID mice (Example 6). The class given is in vivo, NOD SCID mouse. The note with it: S2 3 mg/kg IV. The method, then:
Human brain glioma T98G cells were cultured in vitro. The cells were cultured in EMEM medium added with 10% fetal calf serum, 100 U/mL penicillin and 100 µg/mL streptomycin, in a 37° C. 5% CO2 incubator. After the number of cells reached the required number, the cells were collected. 0.2 mL (10×10^6) of T98G tumor cells (PBS:Matrigel=1:1) were subcutaneously inoculated into the right back of each mouse. The mice were grouped and administered when the average tumor volume reached approximately 147 mm^3. […]
Tumor diameters were measured with vernier calipers twice a week, and tumors were weighed and photographed after the experiment.
1.5 Data Statistics The tumor volume was calculated as follows: V=0.5a×b^2, where a and b represent the long and short diameters of the tumor respectively.
The tumor inhibitory effect was evaluated by TGI (%) or relative tumor proliferation rate T/C (%).
The tumor inhibitory effect was calculated as TGI (%): TGI %=[1-(average tumor volume at the end of administration in a certain treatment group−average tumor volume at the beginning of administration in the treatment group)/(average tumor volume at the end of administration in the vehicle control group−average tumor volume in the vehicle control group at the beginning of treatment)]×100. […]

The test system of a further assay is various tumor cells. The assay can be described thus: Vacuolation by S2, summary over tumor cells (FIG. 2). The class given is cell-based. The method, then:
as §1, §2, §3

Turning to `CCOC(=O)C1=C(C)Nc2nc3c(c(N)c2C1c1ccccc1Cl)CC(C)(C)CC3` (centres unmarked) [Compound S2], the Induction of vacuolation result in the assay with U87MG [1] is “can induce vacuolation”; in the assay on CHO-K1 [2] it was “could not induce vacuolation”. Moreover, the IC50 (usually the concentration needed to halve the response being measured) came out at 4.7 µM in the assay with A172; 7.1 µM with CT26.WT; 10.1 µM in the assay on HepG2; 11.4 µM with SK-N-SH; 9.4 µM with T98G; 14.3 µM in the assay with U251. In addition, the IC50 was 11.7 µM in the assay with U87MG [3]; greater than 100 µM with CHO-K1 [4] (CHO-K1, 48 h); roughly 100 µM in the assay with CHO-K1 [4]. Moreover, the “Tumor volume growth vs vehicle (FIG. 13A-C)” value in assay [5] is on record as “significantly inhibited tumor volume growth; also recorded: inhibited the growth of T98 glioma”. In assay [5], the “Tumor weight at end of experiment vs control (FIG. 13D)” value is “significantly lower than that in the control group; also recorded: reduced the volume and weight of solid tumors”. Also, the “Induction of vacuolation (FIG. 2 legend)” value in the assay with various tumor cells is “induced vacuolation”.

Source of the values: US20250057832A1, “USE OF A CLASS OF 1,4-DIHYDRO-NAPHTHYRIDINE DERIVATIVES IN TREATMENT OF TUMORS” (NEURODAWN PHARMACEUTICAL CO., LTD., priority 2021, published 2025).
